These results are taken from PubChem BioAssay (NCI).

Molecules are shown by their SMILES.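 Briefly, cells in 96-well plates were exposed to five compound concentrations for 48 h, and endpoints were estimated by linear interpolation. The concentration for 50% growth inhibition is given as GI50. TGI: concentration producing complete growth inhibition.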

Among the test systems are ACHN renal; EKVX NSCLC; HOP-62 NSCLC; K-562 leukemia; OVCAR-4 ovarian; RXF 393 renal; SF-295 CNS; SK-MEL-28 melanoma; SK-OV-3 ovarian; SN12C renal.
Common to all, as to assay: NCI anticancer screen, dose series, 48 h

Regarding `O=C(CSc1nnc(-c2ccc(N=Cc3ccc(Cl)cc3)cc2)o1)Nc1ccc(Cl)cc1`, the TGI in the assay with ACHN renal, with EKVX NSCLC, in the assay with HOP-62 NSCLC, in the assay with K-562 leukemia, with OVCAR-4 ovarian and in the assay with RXF 393 renal was above 100 µM throughout. Moreover, the TGI in the assay on SF-295 CNS, in the assay with SK-MEL-28 melanoma, in the assay with SK-OV-3 ovarian and in the assay with SN12C renal was above 100 µM throughout.
Take `Cn1cnc([N+](=O)[O-])c1S(=O)(=O)Oc1ccccc1`: the GI50 is 1.8 µM in the assay with ACHN renal; 17 µM in the assay with EKVX NSCLC; 19.3 µM in the assay on HOP-62 NSCLC; 2.52 µM with K-562 leukemia; 3.22 µM with OVCAR-4 ovarian; 2.23 µM in the assay with RXF 393 renal. In addition, the GI50 was 29.9 µM with SF-295 CNS, 8.61 µM in the assay with SK-MEL-28 melanoma, 97.5 µM in the assay with SK-OV-3 ovarian and 21.5 µM in the assay on SN12C renal. In addition, the TGI in the assay on ACHN renal was found to be 3.37 µM; in the assay on EKVX NSCLC it was 41.2 µM; in the assay on HOP-62 NSCLC it was 39 µM; with K-562 leukemia it was 15.5 µM; in the assay on OVCAR-4 ovarian, 15.1 µM; in the assay with RXF 393 renal it was 6.04 µM. For the same molecule, the TGI with SF-295 CNS was above 73 µM; in the assay with SK-MEL-28 melanoma, 32.2 µM; in the assay with SK-OV-3 ovarian, above 100 µM; with SN12C renal it was above 71.7 µM.
Consider `O=C(NC(=O)c1cn(CCNCCO)c(=O)[nH]c1=O)OCc1ccccc1`, for which the TGI in the assay with ACHN renal, in the assay on EKVX NSCLC, with HOP-62 NSCLC, in the assay with K-562 leukemia, in the assay on OVCAR-4 ovarian and in the assay on RXF 393 renal was above 100 µM throughout. In addition, the TGI with SF-295 CNS, in the assay with SK-MEL-28 melanoma, in the assay on SK-OV-3 ovarian and in the assay with SN12C renal was above 100 µM throughout.
Take `N#Cc1c(-c2ccc(F)cc2)c(-c2ccc(F)cc2)nn(CCO)c1=O`: the TGI is above 81.1 µM in the assay on ACHN renal; above 76.6 µM with EKVX NSCLC; above 76.1 µM in the assay with HOP-62 NSCLC; above 100 µM in the assay on K-562 leukemia; above 100 µM with OVCAR-4 ovarian; 11.2 µM in the assay on RXF 393 renal. Besides, the TGI was 37.2 µM with SF-295 CNS, above 100 µM in the assay on SK-MEL-28 melanoma, above 49.6 µM with SK-OV-3 ovarian and above 100 µM with SN12C renal.
`O=c1[nH]cc(COCCO)c(=O)[nH]1`: the TGI in the assay with ACHN renal, with EKVX NSCLC, in the assay with HOP-62 NSCLC, in the assay with K-562 leukemia, in the assay with OVCAR-4 ovarian and in the assay on RXF 393 renal was above 100 µM each time. The TGI in the assay on SF-295 CNS, in the assay with SK-MEL-28 melanoma, in the assay on SK-OV-3 ovarian and in the assay on SN12C renal was above 100 µM throughout.
For the molecule `C[C@H]1Oc2cc(cnc2N)-c2c(nn(C)c2C#N)CN(C)C(=O)c2ccc(F)cc21`, the GI50 in the assay with ACHN renal was 22.8 µM; in the assay with EKVX NSCLC, 16 µM; with HOP-62 NSCLC, 23 µM; in the assay on K-562 leukemia it was above 100 µM; in the assay on OVCAR-4 ovarian it was above 100 µM; in the assay with RXF 393 renal, 16.7 µM. Also, the GI50 was 47.9 µM in the assay with SF-295 CNS, 50.3 µM with SK-MEL-28 melanoma, 22.1 µM in the assay with SK-OV-3 ovarian and 43.1 µM in the assay with SN12C renal. The TGI with ACHN renal was above 100 µM; in the assay with EKVX NSCLC, above 100 µM; in the assay on HOP-62 NSCLC it was above 100 µM; in the assay on K-562 leukemia it was above 100 µM; with OVCAR-4 ovarian it was above 100 µM; with RXF 393 renal, above 90.9 µM. In addition, the TGI with SF-295 CNS was above 100 µM; in the assay on SK-MEL-28 melanoma it was above 100 µM; with SK-OV-3 ovarian, above 87 µM; in the assay on SN12C renal it was above 100 µM.
As for `COc1ccncc1C#Cc1cncc(C(=O)Nc2ccc(CN3CCN(C)CC3)c(C(F)(F)F)c2)c1`, the GI50 was 19.3 µM in the assay with ACHN renal; 24.7 µM with EKVX NSCLC; 20.9 µM in the assay on HOP-62 NSCLC; 0.0229 µM in the assay with K-562 leukemia; 6.07 µM with OVCAR-4 ovarian; 15.7 µM in the assay on RXF 393 renal. Also, the GI50 with SF-295 CNS is 37.3 µM; with SK-MEL-28 melanoma, 13.3 µM; with SK-OV-3 ovarian it was 28.9 µM; with SN12C renal, 16.8 µM. For the same molecule, the TGI with ACHN renal is above 100 µM; in the assay with EKVX NSCLC it was above 100 µM; in the assay on HOP-62 NSCLC, above 100 µM; in the assay on K-562 leukemia, above 100 µM; in the assay with OVCAR-4 ovarian, above 100 µM; with RXF 393 renal, 49.5 µM. For the same molecule, the TGI in the assay on SF-295 CNS, with SK-MEL-28 melanoma, in the assay on SK-OV-3 ovarian and in the assay on SN12C renal was above 100 µM throughout.
Turning to `O=c1cc2oc3cc(O)c(O)cc3c(-c3ccccc3O)c-2cc1O`, the GI50 with ACHN renal was 4.13 µM; in the assay on EKVX NSCLC, 29.2 µM; in the assay with HOP-62 NSCLC, 5.62 µM; with K-562 leukemia it was 5.76 µM; in the assay with OVCAR-4 ovarian, 11.5 µM; with RXF 393 renal, 6.5 µM. The GI50 with SF-295 CNS is 19.6 µM; in the assay with SK-MEL-28 melanoma it was 37.2 µM; in the assay with SK-OV-3 ovarian, 7.65 µM; in the assay on SN12C renal, 10.7 µM. The TGI in the assay with ACHN renal, with EKVX NSCLC, in the assay with HOP-62 NSCLC, with K-562 leukemia, in the assay on OVCAR-4 ovarian and in the assay on RXF 393 renal was above 100 µM throughout. Further, the TGI in the assay on SF-295 CNS was 61.3 µM; in the assay on SK-MEL-28 melanoma it was above 100 µM; with SK-OV-3 ovarian, above 100 µM; with SN12C renal, above 100 µM.
Regarding `COc1ccc(-c2oc(=O)ccc2-c2cc(OC)c(OC)c(OC)c2)cc1F`, the GI50 was 25.2 µM in the assay with ACHN renal; 46.4 µM in the assay with EKVX NSCLC; 32.7 µM with HOP-62 NSCLC; 4.08 µM in the assay with K-562 leukemia; 36.5 µM in the assay on OVCAR-4 ovarian; 11.6 µM in the assay with RXF 393 renal. The GI50 in the assay with SF-295 CNS is 6.67 µM; in the assay on SK-MEL-28 melanoma, 24.7 µM; with SK-OV-3 ovarian, 80 µM; in the assay with SN12C renal it was 38.1 µM. Also, the TGI in the assay on ACHN renal is above 100 µM; with EKVX NSCLC it was above 100 µM; in the assay on HOP-62 NSCLC, above 100 µM; in the assay with K-562 leukemia, above 100 µM; in the assay on OVCAR-4 ovarian it was above 100 µM; with RXF 393 renal, 29.1 µM. Also, the TGI is 89.7 µM in the assay on SF-295 CNS, above 100 µM in the assay with SK-MEL-28 melanoma, above 100 µM in the assay with SK-OV-3 ovarian and above 100 µM in the assay on SN12C renal.
